Results from ChEMBL document CHEMBL1123692, “Dopamine autoreceptor agonists: resolution and pharmacological activity of 2,6-diaminotetrahydrobenzothiazole and an aminothiazole analogue of apomorphine” (J Med Chem, 1987).

Tests used:
Rattus norvegicus [1] = experiment: Accumulation of nmol of L-DOPA/g of tissue weight corpus striatum elicited by injection of GBL and NSD at a dose of 10 mg/kg; assay type: functional
Rattus norvegicus [2] = experiment: Utilization of DA/g by total brain without cerebellum following alpha-MT (250 mg/kg) at a dose of 10 mg/kg; assay type: functional
Rattus norvegicus [3] = experiment: Percent difference of L-DOPA accumulation when compared to saline at a dose of 1.0 mg/kg
Rattus norvegicus [4] = experiment: Percent difference of DA utilization when compared to saline at a dose of 10 mg/kg; assay type: functional
Rattus norvegicus [5] = experiment: Percent difference of L-DOPA accumulation when compared to saline at a dose of 10 mg/kg; assay type: functional

## CCCN[C@H]1CCc2nc(N)sc2C1.Cl.Cl
Rattus norvegicus [1]
  Accumulation: 11.3
Rattus norvegicus [2]
  DA utilization: 6417
Rattus norvegicus [3]
  Difference: -53%

## CCCN[C@@H]1CCc2nc(N)sc2C1.Cl.Cl
Rattus norvegicus [1]
  Accumulation: 19
Rattus norvegicus [2]
  DA utilization: 5104
Rattus norvegicus [4]
  Difference: 84%
Rattus norvegicus [3]
  Difference: -21%

## Cl.Cl.Nc1nc2c(s1)C[C@H](N)CC2
Rattus norvegicus [2]
  DA utilization: 2441
Rattus norvegicus [4]
  Difference: -12%

## Cl.Cl.Nc1nc2c(s1)C[C@@H](N)CC2
Rattus norvegicus [2]
  DA utilization: 2317
Rattus norvegicus [4]
  Difference: -17%

## CCCN1CCCC2Cc3nc(N)sc3CC21 (stereo unspecified)
Rattus norvegicus [1]
  Accumulation: 9.1
Rattus norvegicus [2]
  DA utilization: 4863
Rattus norvegicus [4]
  Difference: 75%
Rattus norvegicus [5]
  Difference: -62%

## CN1CCc2cccc3c2C1Cc1sc(N)nc1-3.Cl.Cl (single isomer, unassigned; (-))
Rattus norvegicus [1]; 10 mg/kg
  Accumulation: 20.1
Rattus norvegicus [2]; 10 mg/kg
  DA utilization: 3917
Rattus norvegicus [4]; 10 mg/kg
  Difference: 41%
Rattus norvegicus [5]; 10 mg/kg
  Difference: -16%

## CN1CCc2cccc3c2C1Cc1sc(N)nc1-3.Cl.Cl (single isomer, unassigned; (+))
Rattus norvegicus [1]; 10 mg/kg
  Accumulation: 24.4
Rattus norvegicus [2]; 10 mg/kg
  DA utilization: 2441
Rattus norvegicus [4]; 10 mg/kg
  Difference: -12%
Rattus norvegicus [5]; 10 mg/kg
  Difference: 1%

## CN1CCc2cccc3c2[C@H]1Cc1ccc(O)c(O)c1-3 [APOMORPHINE]
Rattus norvegicus [1]
  Accumulation: 8.9
Rattus norvegicus [2]
  DA utilization: 4008
Rattus norvegicus [4]
  Difference: 44%
Rattus norvegicus [5]
  Difference: -63%

## CN1CCc2cccc3c2C1Cc1sc(N)nc1-3 (racemic)
Rattus norvegicus [1]
  Accumulation: 14.9
Rattus norvegicus [2]
  DA utilization: 3721
Rattus norvegicus [4]
  Difference: 34%
Rattus norvegicus [5]
  Difference: -38%
